Results: patent publication US20240018166A1, “SULFONYL UREA NLRP3 INFLAMMASOME INHIBITORS” (Venatorx Pharmaceuticals, Inc., priority 2020, published 2024)

Legend:
[1] = MTT cell viability assay, THP-1 cells; format: cell-based; details: human, unstimulated THP-1 cells, read-out: THP-1 Cytotoxicity CC50
Method: In order to assess the cytotoxicity of the compounds, an MTT cell viability assay was performed in either unstimulated THP-1 or HepG2 cells as follows. 5×10^4 THP-1 or 5×10^3 HepG2 cells were seeded into each well of a 96-well plate in 90 μL of media. Compounds were added to cells as described for the IL-10 assay and returned to the incubator for an additional 72 hours. Next, 25 μL of MTT solution (5 mg/mL in sterile PBS) was added to each well. Plates were incubated for 3 hours at 37° C., 5% CO2. Next, for THP-1 cells, 100 μl of MTT solubilization solution (40% Dimethylformamide, 2% glacial acetic acid, 16% sodium dodecyl sulfate) was then added to each well and plates were incubated at room temperature in the dark overnight. For HepG2 cells, media was aspirated, 50 μL of DMSO was added and plates were mixed briefly with an orbital plate shaker. Absorbance at 570 nm was measured using a Perkin-Elmer EnVision plate reader.
Absorbance values were converted to percentage of vehicle-treated controls. Data was then analyzed using a non-linear regression (variable slope (four-parameter)) equation in GraphPad Prism 7.0.
Table 2 provides THP-1 cytotoxicity assay CC50 values for example compounds. A indicates CC50>10 μM; B indicates CC50 between 1 and 10 μM (inclusive); C indicates CC50<1 μM. NT, not tested.

IL-1β = IL-1β inhibition assay (ELISA/HTRF of culture supernatants); format: cell-based; details: Homo sapiens, PMA-differentiated THP-1 cells, tested 10 μM to 0.003 μM
Method: Human monocyte-like THP-1 cells were grown in RPMI media supplemented with 10% FBS (growth media) at 37° C., 5% CO2. Cell cultures were passaged every three days and maintained at a density of 5×10^5 to 1×10^6 cells per mL.
Compounds were prepared as 10 mM stock solutions in 100% DMSO. […] Each 200× dilution was then diluted 20-fold in growth media (step down dilution) to yield a 10× final assay concentration range. All compounds were tested over a final assay concentration range of 10 μM to 0.003 μM.
The level of IL-10 in supernatants from PMA-differentiated THP-1 cells was determined by ELISA using either the R&D Systems Human IL-1 beta/IL-1F2 Quantikine ELISA or the cisbio HTRF human IL 1 beta kit. Manufacturer's protocols were followed without deviation.
Background values were subtracted and resulting values were converted to percentage of vehicle-treated controls. Data was analyzed via GraphPad Prism 7.0 using a non-linear regression (variable slope (four-parameter)) equation.
Table 2 provides IL-10 ELISA EC50 values for example compounds. A indicates EC50>10 μM; B indicates EC50 between 1 and 10 μM (inclusive); C indicates EC50<1 μM.

| Structure (SMILES) | EC50 (IL-1β) | CC50 at 72 h [1] |
| --- | --- | --- |
| O=C(Nc1c2c(cc3c1CCC3)CCC2)NS(=O)(=O)c1cccc(B(O)O)c1 [Example 1, (3-(N-((1,2,3,5,6,7-hexahydro-s-indacen-4-yl)carbamoyl)sulfamoyl)phenyl)boronic acid] | 1 to 10 µM | > 10 µM |
| CC(C)c1cccc(C(C)C)c1NC(=O)NS(=O)(=O)c1ccc(B(O)O)cc1 [Example 3, (4-(N-((2,6-diisopropylphenyl)carbamoyl)sulfamoyl)phenyl)boronic acid] | 1 to 10 µM | > 10 µM |
| CC(C)c1cccc(C(C)C)c1NC(=O)NS(=O)(=O)c1ccc(B2O[C@@H]3C[C@@H]4C[C@@H](C4(C)C)[C@]3(C)O2)cc1 [Example 4, N-((2,6-diisopropylphenyl)carbamoyl)-4-((3aS,4S,6S,7aR)-3a,5,5-trimethylhexahydro-4,6-methanobenzo[d][1,3,2]dioxaborol-2-yl)benzenesulfonamide] | > 10 µM | > 10 µM |
| CC(C)c1cccc(C(C)C)c1NC(=O)NS(=O)(=O)c1ccc(B(O)O)s1 [Example 5, (5-(N-((2,6-diisopropylphenyl)carbamoyl)sulfamoyl)thiophen-2-yl)boronic acid] | 1 to 10 µM | > 10 µM |
| Cc1ccc(S(=O)(=O)NC(=O)Nc2c(C(C)C)cccc2C(C)C)cc1B(O)O [Example 7, (5-(N-((2,6-diisopropylphenyl)carbamoyl)sulfamoyl)-2-methylphenyl)boronic acid] | 1 to 10 µM | > 10 µM |
| COc1ccc(B2OC(C)(C)C(C)(C)O2)cc1S(=O)(=O)NC(=O)Nc1c(C(C)C)cccc1C(C)C [Example 9, N-((2,6-diisopropylphenyl)carbamoyl)-2-methoxy-5-(4,4,5,5-tetramethyl-1,3,2-dioxaborolan-2-yl)benzenesulfonamide] | > 10 µM | > 10 µM |
| O=C(Nc1c2c(cc3c1CCC3)CCC2)NS(=O)(=O)c1ccc2c(c1)B(O)OC2 [Example 17, N-((1,2,3,5,6,7-hexahydro-s-indacen-4-yl)carbamoyl)-1-hydroxy-1,3-dihydrobenzo[c][1,2]oxaborole-6-sulfonamide] | 1 to 10 µM | > 10 µM |
| CC(C)c1cc(B2OC(C)(C)C(C)(C)O2)ccc1NC(=O)NS(=O)(=O)c1cnn(C(C)C)c1 [Example 18, 1-isopropyl-N-((2-isopropyl-4-(4,4,5,5-tetramethyl-1,3,2-dioxaborolan-2-yl)phenyl)carbamoyl)-1H-pyrazole-4-sulfonamide] | > 10 µM | > 10 µM |
| CC(C)c1cc(B(O)O)ccc1NC(=O)NS(=O)(=O)c1cnn(C(C)C)c1 [Example 19, (3-isopropyl-4-(3-((1-isopropyl-1H-pyrazol-4-yl)sulfonyl)ureido)phenyl)boronic acid] | > 10 µM | > 10 µM |
| CC(C)n1cc(S(=O)(=O)NC(=O)Nc2cc(B3OC(C)(C)C(C)(C)O3)ccc2C2CC2)cn1 [Example 20, N-((2-cyclopropyl-5-(4,4,5,5-tetramethyl-1,3,2-dioxaborolan-2-yl)phenyl)carbamoyl)-1-isopropyl-1H-pyrazole-4-sulfonamide] | > 10 µM | > 10 µM |

Further lines, with some results ahead:

| EC50 (IL-1β) | Structure (SMILES) | CC50 at 72 h [1] |
| --- | --- | --- |
| 1 to 10 µM | CC1(C)[C@@H]2C[C@H]3OB(c4cccc(S(=O)(=O)NC(=O)Nc5c6c(cc7c5CCC7)CCC6)c4)O[C@@]3(C)[C@H]1C2 [Example 2, N-((1,2,3,5,6,7-hexahydro-s-indacen-4-yl)carbamoyl)-3-((3aS,4S,6S,7aR)-3a,5,5-trimethylhexahydro-4,6-methanobenzo[d][1,3,2]dioxaborol-2-yl)benzenesulfonamide] | > 10 µM |
| 1 to 10 µM | Cc1ccc(S(=O)(=O)NC(=O)Nc2c(C(C)C)cccc2C(C)C)cc1B1OC(C)(C)C(C)(C)O1 [Example 6, N-((2,6-diisopropylphenyl)carbamoyl)-4-methyl-3-(4,4,5,5-tetramethyl-1,3,2-dioxaborolan-2-yl)benzenesulfonamide] | > 10 µM |
| > 10 µM | COc1ccc(B(O)O)cc1S(=O)(=O)NC(=O)Nc1c(C(C)C)cccc1C(C)C [Example 8, (3-(N-((2,6-diisopropylphenyl)carbamoyl)sulfamoyl)-4-methoxyphenyl)boronic acid] | > 10 µM |
| > 10 µM | O=C(Nc1c2c(cc3c1CCC3)CCC2)NS(=O)(=O)c1ccccc1B(O)O [Example 10, (2-(N-((1,2,3,5,6,7-hexahydro-s-indacen-4-yl)carbamoyl)sulfamoyl)phenyl)boronic acid] | > 10 µM |
| > 10 µM | CC(C)c1cccc(C(C)C)c1NC(=O)NS(=O)(=O)c1ccccc1B(O)O [Example 11, (2-(N-((2,6-diisopropylphenyl)carbamoyl)sulfamoyl)phenyl)boronic acid] | > 10 µM |
| 1 to 10 µM | O=C(Nc1c2c(cc3c1CCC3)CCC2)NS(=O)(=O)c1ccc(B(O)O)s1 [Example 12, (5-(N-((1,2,3,5,6,7-hexahydro-s-indacen-4-yl)carbamoyl)sulfamoyl)thiophen-2-yl)boronic acid] | > 10 µM |
| 1 to 10 µM | O=C(Nc1c2c(cc3c1CCC3)CCC2)NS(=O)(=O)c1ccc(B(O)O)cc1 [Example 13, (4-(N-((1,2,3,5,6,7-hexahydro-s-indacen-4-yl)carbamoyl)sulfamoyl)phenyl)boronic acid] | > 10 µM |
| 1 to 10 µM | CC1(C)[C@@H]2CC3OB(c4ccc(S(=O)(=O)NC(=O)Nc5c6c(cc7c5CCC7)CCC6)cc4)O[C@@]3(C)[C@H]1C2 (stereo partly drawn) [Example 14, N-((1,2,3,5,6,7-hexahydro-s-indacen-4-yl)carbamoyl)-4-((3aS,4S,6S)-3a,5,5-trimethylhexahydro-4,6-methanobenzo[d][1,3,2]dioxaborol-2-yl)benzenesulfonamide] | > 10 µM |
| 1 to 10 µM | Cc1c(B(O)O)cccc1S(=O)(=O)NC(=O)Nc1c2c(cc3c1CCC3)CCC2 [Example 15, (3-(N-((1,2,3,5,6,7-hexahydro-s-indacen-4-yl)carbamoyl)sulfamoyl)-2-methylphenyl)boronic acid] | > 10 µM |
| 1 to 10 µM | Cc1c(B2OC(C)(C)C(C)(C)O2)cccc1S(=O)(=O)NC(=O)Nc1c2c(cc3c1CCC3)CCC2 [Example 16, N-((1,2,3,5,6,7-hexahydro-s-indacen-4-yl)carbamoyl)-2-methyl-3-(4,4,5,5-tetramethyl-1,3,2-dioxaborolan-2-yl)benzenesulfonamide] | > 10 µM |
| > 10 µM | CC(C)n1cc(S(=O)(=O)NC(=O)Nc2cc(B(O)O)ccc2C2CC2)cn1 [Example 21, (4-cyclopropyl-3-(3-((1-isopropyl-1H-pyrazol-4-yl)sulfonyl)ureido)phenyl)boronic acid] | 1 to 10 µM |
| > 10 µM | CC(C)n1cc(S(=O)(=O)NC(=O)Nc2cc(B3OC(C)(C)C(C)(C)O3)ccc2C(C)(C)C)cn1 [Example 22, N-((2-(tert-butyl)-5-(4,4,5,5-tetramethyl-1,3,2-dioxaborolan-2-yl)phenyl)carbamoyl)-1-isopropyl-1H-pyrazole-4-sulfonamide] | > 10 µM |
| > 10 µM | CC(C)n1cc(S(=O)(=O)NC(=O)Nc2cc(B(O)O)ccc2C(C)(C)C)cn1 [Example 23, (4-(tert-butyl)-3-(3-((1-isopropyl-1H-pyrazol-4-yl)sulfonyl)ureido)phenyl)boronic acid] | > 10 µM |
